Test results: patent US20240148780A1, “COMPOSITION AND USE OF AN OPHTHALMIC SOLUTION BASED ON HYALURONIC ACID AND ARABINOGALACTAN” (MD ITALY SRL, priority 2019, published 2024)

Tests used:
[1] = test system: isolated hepatocytes and microsomal fractions from rat liver; details: compared with an equivalent amount of directly-added free alpha-tocopherol; cited from earlier work
[2] = target: T1, xanthine oxidase (Homo sapiens, UniProt P47989); assay: Xanthine oxidase (XOD) reaction inhibition: formation of uric acid; type: biochemical
Method: The effect of arabinogalactan, hyaluronic acid and the association thereof was investigated by monitoring the formation of uric acid over time (0, 1, 5, 10, 15, 30 min). Uric acid concentration was determined at 291 nm using a DR6000 UV spectrophotometer (Hach, Lange). The absorbance value is related to the concentration by means of the Lambert-Beer law:
where A is the absorbance of uric acid at 291 nm, ε is the molar absorption coefficient, b is the optical path (thickness of the cuvette in which the solution is contained) and C is the uric acid concentration.
The blank/control consists of: 50 μM xanthine, 10 mg L^−1 of xanthine oxidase (XO) (0.00016 μUI of enzyme) in borate buffer solution (see table 3) 7.2≤pH≤7.8). The effect of the components of the eye drops was investigated by adding the individual components to the blank solution: respectively • (i) 0.4% (w/w) of arabinogalactan (AG) • (ii) 0.15% (w/w) of hyaluronic acid (HA) • (iii) association of 0.4% (w/w) of AG+0.15% (w/w) of HA (mix AG+HA). • (iii) Eye drops corresponding to the formulation of Tab.3.
All the tests were conducted at least in triplicate.
The uric acid formation reductions were calculated as: […]
where C30-(i) is the final concentration (30 min) of uric acid in the i-th test and C30-control is the uric acid concentration at 30 min in the blank (control).
Furthermore, the inhibition evaluation reported above was also carried out in borate buffer for arabinogalactan, for hyaluronic acid and for the association thereof, and finally for the eye drops formulation of the present invention, also comprising panthenol, vitamin E-TGPS and trehalose.

[3] = Viscosity as a function of shear rate, plate viscometer; type: physicochemical
Method: Given the results obtained, the characterization was further extended to determine the viscosity as a function of the shear rate, always using a Plate Viscometer, in particular the following solutions were measured. • Sample 1: Hyaluronic acid • Sample 2: Hyaluronic acid+Arabinogalactan • Sample 3: Eye drops A • Sample 4: Arabinogalactan
The description of the graph can be further exemplified by the following table which reports the viscosity values (mPa·s$) at 10[1/s] at a fixed point corresponding to A.

[4] = Rheology, plate viscometer in oscillation mode (G″, G′); type: physicochemical; details: HA 0.15% w/w, AG 0.4% w/w
Method: In addition to the evaluation of the effect of arabinogalactan, hyaluronic acid and the association thereof on xanthine oxidase activity and in order to characterize the possible interaction thereof, to justify the inhibitory effect thereof, rheology measurements were carried out with the hypothesis that the two macrostructures, arabinogalactan on the one hand and hyaluronic acid on the other, could modify the rheological trend of the formulation of the present invention.
With reference to FIG. 3, the characterization of the following solutions was carried out using an AM Instruments Plate Viscometer, in Oscillation Mode. The following solutions were measured: • Sample 1: Hyaluronic acid solution at 0.15% w/w • Sample 2: Arabinogalactan solution 0.4% +Hyaluronic acid 0.15% w/v • Sample 3: Arabinogalactan solution 0.4% w/w.
1: Hyaluronic acid 0.15% w/w • Solution no. 2: Arabinogalactan 0.4%+hyaluronic acid 0.15% w/w • Solution no. 3: Arabinogalactan 0.4% w/w • Interpretation of the Results: […]

[5] = target: T1, xanthine oxidase; assay: Superoxide anion production by xanthine oxidase, detected by ferrocytochrome C reduction; type: biochemical; details: xanthine oxidase reaction
Description: Any inhibition is particularly important because the superoxide anion production is at the origin, at least in part, of the inflammatory phenomena of the ocular surface. The superoxide anion produced by xanthine oxidase in the oxidation reaction of xanthine was detected by the reduction of […] to […] by the same superoxide anion (O2^−·) (Fridovich). The reaction is reported here for clarity:
Fe^3+Cit.C+Superoxide Anion-----→Fe^2+Cit.C
The effect of arabinogalactan, hyaluronic acid, and the association thereof on superoxide anion production over time (0, 1, 5, 10, 15, 30 min) was investigated. The production of superoxide anion was determined by the reduction of ferrocytochrome C (3+) to ferrocytochrome C (2+), monitoring absorption at 551 nm using a DR6000 UV spectrophotometer (Hach, Lange). The tests for the determination of superoxide anion production were carried out still using the xanthine oxidase reaction used previously.
Produced by the superoxide anion, the ferrocytochrome C was calculated considering a molar absorption equal to 2.1×10^4 M^−1·cm^−1 (Ref. 16-17). The superoxide inhibition evaluation reported above was performed for arabinogalactan, hyaluronic acid, and the association thereof. Furthermore, the eye drops formulation of the present invention was also evaluated, also comprising panthenol, vitamin E-TGPS and trehalose.

T1 sequence (P47989 whole entry, species assumed): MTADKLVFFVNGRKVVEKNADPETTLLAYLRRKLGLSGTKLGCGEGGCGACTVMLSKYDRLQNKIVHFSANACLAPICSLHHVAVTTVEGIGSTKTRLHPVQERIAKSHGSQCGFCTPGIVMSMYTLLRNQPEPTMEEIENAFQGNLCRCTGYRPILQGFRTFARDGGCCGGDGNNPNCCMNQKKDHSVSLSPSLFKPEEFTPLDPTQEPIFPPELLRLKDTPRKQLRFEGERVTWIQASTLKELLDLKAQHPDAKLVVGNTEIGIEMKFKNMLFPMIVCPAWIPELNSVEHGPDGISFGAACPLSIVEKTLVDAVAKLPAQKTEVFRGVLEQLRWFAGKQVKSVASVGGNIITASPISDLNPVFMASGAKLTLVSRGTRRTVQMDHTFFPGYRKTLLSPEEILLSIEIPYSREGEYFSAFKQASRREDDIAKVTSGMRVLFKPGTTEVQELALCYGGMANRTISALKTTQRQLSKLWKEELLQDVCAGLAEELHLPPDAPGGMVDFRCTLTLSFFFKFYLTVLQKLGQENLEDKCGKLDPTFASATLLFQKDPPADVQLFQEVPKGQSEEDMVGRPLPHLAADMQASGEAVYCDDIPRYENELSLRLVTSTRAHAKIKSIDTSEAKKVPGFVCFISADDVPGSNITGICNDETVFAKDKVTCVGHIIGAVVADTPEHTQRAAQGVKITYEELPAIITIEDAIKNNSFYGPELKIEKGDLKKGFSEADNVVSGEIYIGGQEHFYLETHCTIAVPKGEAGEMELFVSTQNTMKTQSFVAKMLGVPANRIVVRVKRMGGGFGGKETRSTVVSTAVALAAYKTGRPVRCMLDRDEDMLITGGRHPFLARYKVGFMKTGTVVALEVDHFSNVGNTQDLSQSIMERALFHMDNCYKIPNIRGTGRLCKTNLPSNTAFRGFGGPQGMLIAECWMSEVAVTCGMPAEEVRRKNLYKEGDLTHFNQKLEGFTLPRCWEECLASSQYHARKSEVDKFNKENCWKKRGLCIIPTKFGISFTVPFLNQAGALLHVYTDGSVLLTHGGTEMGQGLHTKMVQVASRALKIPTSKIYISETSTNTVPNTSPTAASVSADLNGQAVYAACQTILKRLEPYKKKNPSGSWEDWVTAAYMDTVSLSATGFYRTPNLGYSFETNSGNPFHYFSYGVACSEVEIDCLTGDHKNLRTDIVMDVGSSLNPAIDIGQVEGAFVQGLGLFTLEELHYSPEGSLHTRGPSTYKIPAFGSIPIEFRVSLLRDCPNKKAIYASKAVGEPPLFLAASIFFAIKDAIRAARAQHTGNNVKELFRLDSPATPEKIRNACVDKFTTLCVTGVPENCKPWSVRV

| Compound | Antioxidant protection [1] | Uric acid μM produced in 30 minutes ([2]; 50 μM xanthine, 10 mg L−1 xanthine oxidase, borate buffer, AG 0.4% w/w, HA 0.15% w/w, 30 min) [µM] | Inhibition % of uric acid production ([2]; 50 μM xanthine, 10 mg L−1 xanthine oxidase, borate buffer, AG 0.4% w/w, HA 0.15% w/w, 30 min vs blank) [%] | Uric acid μM produced per minute ([2]; per minute, same reaction, linear kinetics assumed) [µM] | Viscosity trend as a function of shear rate ([3]; FIG. 4) | Viscosity ([3]; at 10 [1/s], fixed point) [mPa·s] | Trend of G″ (Loss Modulus Viscosity) [4] | Fe+2 Cit.C μM produced per minute ([5]; per minute) [µM] | Fe+2 Cit.C μM produced in 30 minutes ([5]; 551 nm, 30 min) [µM] | Inhibition % of Fe+2 Cit.C production (superoxide anion) ([5]; 551 nm, 30 min vs control) [%] |
| --- | --- | --- | --- | --- | --- | --- | --- | --- | --- | --- |
| Cc1c(C)c2c(c(C)c1OC(=O)CCC(=O)O)CC[C@@](C)(CCC[C@H](C)CCC[C@H](C)CCCC(C)C)O2 [TS, alpha-tocopherol succinate, reference compound] | more effective antioxidant protection than an equivalent amount of directly-added free alpha-tocopherol |  |  |  |  |  |  |  |  |  |
| Hyaluronic acid |  | 15.3 | 0 | 0.51 | linear trend (Newtonian) higher viscosity | 1.50 | always with a value higher than the other measured solutions | 0.42 | 12.6 | 17.2 |
| alpha-tocopherol polyethylene glycol 1000 succinate [TPGS] | more effective antioxidant protection than an equivalent amount of directly-added free alpha-tocopherol |  |  |  |  |  |  |  |  |  |
